Measured values published in PMC5578959, “Selective LRRK2 kinase inhibition reduces phosphorylation of endogenous Rab10 and Rab12 in human peripheral mononuclear blood cells” (Scientific Reports, 2017).

Tests used:
Assay in all cases: KiNativ profiling in human PBMCs
Assay type in all cases: binding
RSKL1 domain1 = tested on: T1, RSKL1 domain1; settings: ATP
T1 construct: RSKL1 domain1; purchased ActivX Technologies (KiNativ)
Procedure, shortened: (§1)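 Compound was applied to living PBMCs at 0.1 µM or 1 µM. Occupancy of kinases was then assessed by KiNativ.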

GSK3A = tested on: T2, GSK3A; settings: Lys2
T2 construct: purchased ActivX Technologies (KiNativ)
Procedure, shortened: as §1

MARK1,MARK2 = settings: Lys1
Procedure, shortened: as §1

ZAK = tested on: T3, ZAK; settings: Lys1
T3 construct: purchased ActivX Technologies (KiNativ)
Procedure, shortened: as §1

MAST3 = tested on: T4, MAST3; settings: Lys2
T4 construct: purchased ActivX Technologies (KiNativ)
Procedure, shortened: as §1

CSK = tested on: T5, CSK
T5 construct: purchased ActivX Technologies (KiNativ)
Procedure, shortened: as §1

PIK3CD = tested on: T6, PIK3CD; settings: ATP
T6 construct: purchased ActivX Technologies (KiNativ)
Procedure, shortened: as §1

p38a = tested on: T7, p38a
T7 construct: purchased ActivX Technologies (KiNativ)
Procedure, shortened: as §1

GSK3B = tested on: T8, GSK3B; settings: Lys2
T8 construct: purchased ActivX Technologies (KiNativ)
Procedure, shortened: as §1

Wnk1,Wnk2,Wnk3 = settings: Lys2
Procedure, shortened: as §1

CDK5 = tested on: T9, CDK5
T9 construct: purchased ActivX Technologies (KiNativ)
Procedure, shortened: as §1

DNAPK = tested on: T10, DNAPK; settings: ATP
T10 construct: purchased ActivX Technologies (KiNativ)
Procedure, shortened: as §1

JAK3 domain2 = tested on: T11, JAK3 domain2
T11 construct: JAK3 domain2; purchased ActivX Technologies (KiNativ)
Procedure, shortened: as §1

PKR = tested on: T12, PKR
T12 construct: purchased ActivX Technologies (KiNativ)
Procedure, shortened: as §1

GPRK6 = tested on: T13, GPRK6; settings: Lys2
T13 construct: purchased ActivX Technologies (KiNativ)
Procedure, shortened: as §1

CDK7 = tested on: T14, CDK7; settings: Lys2
T14 construct: purchased ActivX Technologies (KiNativ)
Procedure, shortened: as §1

MAP2K7 = tested on: T15, MAP2K7; settings: Lys2
T15 construct: purchased ActivX Technologies (KiNativ)
Procedure, shortened: as §1

FGR = tested on: T16, FGR; settings: Activation Loop
T16 construct: purchased ActivX Technologies (KiNativ)
Procedure, shortened: as §1

Cn1cc(-c2c[nH]c3ncnc(N4CCOCC4)c23)cc1C#N [PFE-360]
% Inhibition (RSKL1 domain1; 0.1µM): -38% | % Inhibition (RSKL1 domain1; 1µM): 7.3% | % Inhibition (GSK3A; 0.1µM): 10.6% | % Inhibition (GSK3A; 1µM): 19.8% | % Inhibition (MARK1,MARK2; 0.1µM): 6.2% | % Inhibition (MARK1,MARK2; 1µM): 3.2% | % Inhibition (ZAK; 0.1µM): -12.2% | % Inhibition (ZAK; 1µM): -10.2% | % Inhibition (MAST3; 0.1µM): 0.2% | % Inhibition (MAST3; 1µM): -2.7% | % Inhibition (CSK; 0.1µM, Activation Loop): -3.4% | % Inhibition (CSK; 0.1µM, Lys1): 0.7% | % Inhibition (CSK; 1µM, Activation Loop): -10.5% | % Inhibition (CSK; 1µM, Lys1): -10.4% | % Inhibition (PIK3CD; 0.1µM, peptide TKVNWLAHNVSKDNRQ): -9.3% | % Inhibition (PIK3CD; 0.1µM, peptide VNWLAHNVSKDNRQ): 0.5% | % Inhibition (PIK3CD; 1µM, peptide TKVNWLAHNVSKDNRQ): -11.6% | % Inhibition (PIK3CD; 1µM, peptide VNWLAHNVSKDNRQ): 1.4% | % Inhibition (p38a; 0.1µM, Lys2): 7.1% | % Inhibition (p38a; 0.1µM, Protein Kinase Domain): 7.5% | % Inhibition (p38a; 1µM, Lys2): -2.9% | % Inhibition (p38a; 1µM, Protein Kinase Domain): 1% | % Inhibition (GSK3B; 0.1µM): 11.2% | % Inhibition (GSK3B; 1µM): 14.9% | % Inhibition (Wnk1,Wnk2,Wnk3; 0.1µM): 11.3% | % Inhibition (Wnk1,Wnk2,Wnk3; 1µM): 1.3% | % Inhibition (CDK5; 0.1µM, Lys1): -2.7% | % Inhibition (CDK5; 0.1µM, Lys2): 3.9% | % Inhibition (CDK5; 1µM, Lys1): -6.7% | % Inhibition (CDK5; 1µM, Lys2): -7.1% | % Inhibition (DNAPK; 0.1µM, peptide EHPFLVKGGEDLR): 0.3% | % Inhibition (DNAPK; 0.1µM, peptide KGGSWIQEINVAEK): -1.9% | % Inhibition (DNAPK; 1µM, peptide EHPFLVKGGEDLR): -12.5% | % Inhibition (DNAPK; 1µM, peptide KGGSWIQEINVAEK): -4.9% | % Inhibition (JAK3 domain2; 0.1µM, Activation Loop): 6.4% | % Inhibition (JAK3 domain2; 0.1µM, Lys1): 2.6% | % Inhibition (JAK3 domain2; 1µM, Activation Loop): 7.7% | % Inhibition (JAK3 domain2; 1µM, Lys1): -7.6% | % Inhibition (PKR; 0.1µM, Activation Loop): -1.7% | % Inhibition (PKR; 0.1µM, Lys2): -0.1% | % Inhibition (PKR; 1µM, Activation Loop): -6.6% | % Inhibition (PKR; 1µM, Lys2): -9.3% | % Inhibition (GPRK6; 0.1µM): 5.7% | % Inhibition (GPRK6; 1µM): 0.4% | % Inhibition (CDK7; 0.1µM): 5% | % Inhibition (CDK7; 1µM): -4.6% | % Inhibition (MAP2K7; 0.1µM): 7.5% | % Inhibition (MAP2K7; 1µM): -1.1% | % Inhibition (FGR; 0.1µM): -2.5% | % Inhibition (FGR; 1µM): -6.6%
